Experimental data: PubChem BioAssay AID1259407 (Chemical Carcinogenesis Research Information System (CCRIS), 2018)
Activity calls are given as the source filed them. The rule behind the calls is not given here.

System: CCRIS mutagenicity, Ames/micronucleus/aberration tests
Assay: CCRIS mutagenicity studies
Conditions: Method: PREINCUBATION

Measured: mutagenic call

Cc1ccc(Cl)cc1
inactive: Test System: AMES SALMONELLA TYPHIMURIUM, Strain/Indicator: TA97, Metabolic Activation: HAMSTER, LIVER, S-9, AROCLOR 1254 (10%) inactive; negative | Test System: AMES SALMONELLA TYPHIMURIUM, Strain/Indicator: TA97, Metabolic Activation: HAMSTER, LIVER, S-9, AROCLOR 1254 (30%) inactive; negative | Test System: AMES SALMONELLA TYPHIMURIUM, Strain/Indicator: TA97, Metabolic Activation: NONE inactive; negative | Test System: AMES SALMONELLA TYPHIMURIUM, Strain/Indicator: TA97, Metabolic Activation: RAT, LIVER, S-9, AROCLOR 1254 (10%) inactive; negative | Test System: AMES SALMONELLA TYPHIMURIUM, Strain/Indicator: TA97, Metabolic Activation: RAT, LIVER, S-9, AROCLOR 1254 (30%) inactive; negative | Test System: AMES SALMONELLA TYPHIMURIUM, Strain/Indicator: TA98, Metabolic Activation: HAMSTER, LIVER, S-9, AROCLOR 1254 (10%) inactive; negative | Test System: AMES SALMONELLA TYPHIMURIUM, Strain/Indicator: TA98, Metabolic Activation: HAMSTER, LIVER, S-9, AROCLOR 1254 (30%) inactive; negative | Test System: AMES SALMONELLA TYPHIMURIUM, Strain/Indicator: TA98, Metabolic Activation: NONE inactive; negative | Test System: AMES SALMONELLA TYPHIMURIUM, Strain/Indicator: TA98, Metabolic Activation: RAT LIVER S-9, PHENOBARBITAL AND BETA-NAPHTHOFLAVONE inactive; negative | Test System: AMES SALMONELLA TYPHIMURIUM, Strain/Indicator: TA98, Metabolic Activation: RAT, LIVER, S-9, AROCLOR 1254 (10%) inactive; negative | Test System: AMES SALMONELLA TYPHIMURIUM, Strain/Indicator: TA98, Metabolic Activation: RAT, LIVER, S-9, AROCLOR 1254 (30%) inactive; negative | Test System: AMES SALMONELLA TYPHIMURIUM, Strain/Indicator: TA100, Metabolic Activation: HAMSTER, LIVER, S-9, AROCLOR 1254 (10%) inactive; negative | Test System: AMES SALMONELLA TYPHIMURIUM, Strain/Indicator: TA100, Metabolic Activation: HAMSTER, LIVER, S-9, AROCLOR 1254 (30%) inactive; negative | Test System: AMES SALMONELLA TYPHIMURIUM, Strain/Indicator: TA100, Metabolic Activation: NONE inactive; negative | Test System: AMES SALMONELLA TYPHIMURIUM, Strain/Indicator: TA100, Metabolic Activation: RAT LIVER S-9, PHENOBARBITAL AND BETA-NAPHTHOFLAVONE inactive; negative | Test System: AMES SALMONELLA TYPHIMURIUM, Strain/Indicator: TA100, Metabolic Activation: RAT, LIVER, S-9, AROCLOR 1254 (10%) inactive; negative | Test System: AMES SALMONELLA TYPHIMURIUM, Strain/Indicator: TA100, Metabolic Activation: RAT, LIVER, S-9, AROCLOR 1254 (30%) inactive; negative | Test System: AMES SALMONELLA TYPHIMURIUM, Strain/Indicator: TA102, Metabolic Activation: NONE inactive; negative | Test System: AMES SALMONELLA TYPHIMURIUM, Strain/Indicator: TA102, Metabolic Activation: RAT LIVER S-9, PHENOBARBITAL AND BETA-NAPHTHOFLAVONE inactive; negative | Test System: AMES SALMONELLA TYPHIMURIUM, Strain/Indicator: TA104, Metabolic Activation: NONE inactive; negative | Test System: AMES SALMONELLA TYPHIMURIUM, Strain/Indicator: TA104, Metabolic Activation: RAT LIVER S-9, PHENOBARBITAL AND BETA-NAPHTHOFLAVONE inactive; negative | Test System: AMES SALMONELLA TYPHIMURIUM, Strain/Indicator: TA1535, Metabolic Activation: HAMSTER, LIVER, S-9, AROCLOR 1254 (10%) inactive; negative | Test System: AMES SALMONELLA TYPHIMURIUM, Strain/Indicator: TA1535, Metabolic Activation: HAMSTER, LIVER, S-9, AROCLOR 1254 (30%) inactive; negative | Test System: AMES SALMONELLA TYPHIMURIUM, Strain/Indicator: TA1535, Metabolic Activation: NONE inactive; negative | Test System: AMES SALMONELLA TYPHIMURIUM, Strain/Indicator: TA1535, Metabolic Activation: RAT LIVER S-9, PHENOBARBITAL AND BETA-NAPHTHOFLAVONE inactive; negative | Test System: AMES SALMONELLA TYPHIMURIUM, Strain/Indicator: TA1535, Metabolic Activation: RAT, LIVER, S-9, AROCLOR 1254 (10%) inactive; negative | Test System: AMES SALMONELLA TYPHIMURIUM, Strain/Indicator: TA1535, Metabolic Activation: RAT, LIVER, S-9, AROCLOR 1254 (30%) inactive; negative | Test System: AMES SALMONELLA TYPHIMURIUM, Strain/Indicator: TA1537, Metabolic Activation: HAMSTER, LIVER, S-9, AROCLOR 1254 (30%) inactive; negative | Test System: AMES SALMONELLA TYPHIMURIUM, Strain/Indicator: TA1537, Metabolic Activation: NONE inactive; negative | Test System: AMES SALMONELLA TYPHIMURIUM, Strain/Indicator: TA1537, Metabolic Activation: RAT LIVER S-9, PHENOBARBITAL AND BETA-NAPHTHOFLAVONE inactive; negative | Test System: AMES SALMONELLA TYPHIMURIUM, Strain/Indicator: TA1537, Metabolic Activation: RAT, LIVER, S-9, AROCLOR 1254 (30%) inactive; negative | Test System: E.COLI, Strain/Indicator: WP2UVRA/PKM101, Metabolic Activation: NONE inactive; negative | Test System: E.COLI, Strain/Indicator: WP2UVRA/PKM101, Metabolic Activation: RAT LIVER S-9, PHENOBARBITAL AND BETA-NAPHTHOFLAVONE inactive; negative | Test System: E.COLI, Strain/Indicator: WP2UVRA, Metabolic Activation: NONE inactive; negative | Test System: E.COLI, Strain/Indicator: WP2UVRA, Metabolic Activation: RAT LIVER S-9, PHENOBARBITAL AND BETA-NAPHTHOFLAVONE inactive; negative
